Test results from the kinase profiling compilation of Christmann-Franck et al. (2016).

Experiments:
Test in all cases: KINOMEscan competition binding
Conditions in all cases: compound 10.0 µM
[1] = test system: EGFR (human), P00533 [T790M/L858R]
[2] = target: AKT1 (human) (UniProt P31749)
[3] = target: MAP3K11 (human) (UniProt Q16584)
[4] = target: CDK13 (human) (UniProt Q14004)
[5] = target: CDC42BPA (human) (UniProt Q5VT25)
[6] = target: DYRK1A (human) (UniProt Q13627)
[7] = target: MAP4K1 (human) (UniProt Q92918)
[8] = target: ACVR1 (human) (UniProt Q04771)
Chain of ACVR1 (human) (Q04771 whole entry, looked up): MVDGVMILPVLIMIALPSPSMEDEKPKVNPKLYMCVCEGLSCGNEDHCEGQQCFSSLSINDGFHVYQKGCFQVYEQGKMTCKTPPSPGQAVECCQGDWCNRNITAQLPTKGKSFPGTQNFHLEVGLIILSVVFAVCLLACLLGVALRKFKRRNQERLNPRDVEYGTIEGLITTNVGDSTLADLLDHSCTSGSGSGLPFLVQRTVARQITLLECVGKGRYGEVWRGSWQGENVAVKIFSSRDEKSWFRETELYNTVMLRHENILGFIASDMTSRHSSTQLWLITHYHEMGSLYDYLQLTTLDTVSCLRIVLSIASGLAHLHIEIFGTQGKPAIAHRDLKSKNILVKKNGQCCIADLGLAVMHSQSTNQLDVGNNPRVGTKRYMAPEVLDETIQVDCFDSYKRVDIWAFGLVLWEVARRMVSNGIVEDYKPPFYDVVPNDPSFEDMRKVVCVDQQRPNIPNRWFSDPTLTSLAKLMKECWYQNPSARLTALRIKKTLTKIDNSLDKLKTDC

[9] = target: GRK7 (human) (UniProt Q8WTQ7)
[10] = target: CLK2 (human) (UniProt P49760)
[11] = target: CSNK1G2 (human) (UniProt P78368)
[12] = test system: FLT3 (human), P36888 [R834Q]
[13] = target: EPHB1 (human) (UniProt P54762)
[14] = target: GRK1 (human) (UniProt Q15835)
Chain of GRK1 (human) (Q15835 whole entry, looked up): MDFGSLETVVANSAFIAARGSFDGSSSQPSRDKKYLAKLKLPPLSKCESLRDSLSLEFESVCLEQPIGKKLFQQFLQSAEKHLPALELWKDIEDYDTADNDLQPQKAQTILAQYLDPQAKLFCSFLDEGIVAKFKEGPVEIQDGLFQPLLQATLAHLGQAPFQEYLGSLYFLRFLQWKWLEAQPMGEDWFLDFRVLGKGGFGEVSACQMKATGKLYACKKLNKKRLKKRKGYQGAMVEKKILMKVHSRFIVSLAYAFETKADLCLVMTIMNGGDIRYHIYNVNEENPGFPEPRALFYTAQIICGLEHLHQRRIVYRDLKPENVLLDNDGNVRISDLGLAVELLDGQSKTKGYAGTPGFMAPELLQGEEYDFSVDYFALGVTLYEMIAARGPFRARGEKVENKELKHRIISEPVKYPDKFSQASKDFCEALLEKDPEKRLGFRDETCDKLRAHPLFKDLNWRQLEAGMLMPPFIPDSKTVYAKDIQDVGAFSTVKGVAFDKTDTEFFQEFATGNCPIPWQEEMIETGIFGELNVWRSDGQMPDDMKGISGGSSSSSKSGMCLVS

[15] = target: PIK3C2B (human) (UniProt O00750)
[16] = target: MAP3K12 (human) (UniProt Q12852)
[17] = target: IKBKE (human) (UniProt Q14164)
[18] = target: PIK3CB (human) (UniProt P42338)
[19] = target: TIE1 (human) (UniProt P35590)
[20] = target: CSNK1E (human) (UniProt P49674)
[21] = target: CLK1 (human) (UniProt P49759)
Chain of CLK1 (human) (P49759 whole entry, looked up): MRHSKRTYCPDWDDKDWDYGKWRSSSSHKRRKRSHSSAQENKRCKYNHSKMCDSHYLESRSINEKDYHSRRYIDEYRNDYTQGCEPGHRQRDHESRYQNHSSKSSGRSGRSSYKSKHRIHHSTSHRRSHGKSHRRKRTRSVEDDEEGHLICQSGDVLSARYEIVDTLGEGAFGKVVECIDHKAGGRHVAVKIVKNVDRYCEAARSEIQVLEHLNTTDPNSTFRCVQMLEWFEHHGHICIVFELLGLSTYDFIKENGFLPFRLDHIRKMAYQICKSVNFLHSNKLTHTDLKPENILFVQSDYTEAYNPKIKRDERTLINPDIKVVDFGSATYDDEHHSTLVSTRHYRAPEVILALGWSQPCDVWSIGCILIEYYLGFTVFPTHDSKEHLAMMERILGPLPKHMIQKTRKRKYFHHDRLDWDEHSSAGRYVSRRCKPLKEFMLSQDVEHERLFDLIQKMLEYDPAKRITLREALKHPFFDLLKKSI

[22] = target: MAPK7 (human) (UniProt Q13164)
[23] = target: AURKB (human) (UniProt Q96GD4)
[24] = target: MAPKAPK5 (human) (UniProt Q8IW41)
[25] = target: MAP2K6 (human) (UniProt P52564)
[26] = target: MAPKAPK2 (human) (UniProt P49137)
[27] = target: NIM1 (human) (UniProt Q8IY84)
Chain of NIM1 (human) (Q8IY84 whole entry, looked up): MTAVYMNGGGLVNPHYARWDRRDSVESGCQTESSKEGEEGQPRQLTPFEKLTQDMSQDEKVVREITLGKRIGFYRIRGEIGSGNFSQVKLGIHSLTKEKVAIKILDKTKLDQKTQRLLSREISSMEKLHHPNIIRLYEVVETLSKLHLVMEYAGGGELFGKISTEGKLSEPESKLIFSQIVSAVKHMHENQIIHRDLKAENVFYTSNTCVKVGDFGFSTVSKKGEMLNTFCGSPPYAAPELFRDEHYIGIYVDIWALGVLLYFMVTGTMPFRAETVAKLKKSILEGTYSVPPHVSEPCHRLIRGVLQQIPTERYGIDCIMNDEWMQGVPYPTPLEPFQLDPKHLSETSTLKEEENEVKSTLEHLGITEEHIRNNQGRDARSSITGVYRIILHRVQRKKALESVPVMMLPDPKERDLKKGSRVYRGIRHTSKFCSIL

[28] = target: EIF2AK1 (human) (UniProt Q9BQI3)
[29] = target: MAP4K3 (human) (UniProt Q8IVH8)
[30] = target: CDC42BPG (human) (UniProt Q6DT37)
[31] = target: MARK1 (human) (UniProt Q9P0L2)
[32] = target: CAMK2G (human) (UniProt Q13555)
[33] = target: MTOR (human) (UniProt P42345)
[34] = target: PRKG2 (human) (UniProt Q13237)
[35] = target: CSNK1A1 (human) (UniProt P48729)
[36] = target: LCK (human) (UniProt P06239)
[37] = target: STK25 (human) (UniProt O00506)
[38] = target: EPHA6 (human) (UniProt Q9UF33)
[39] = target: ACVRL1 (human) (UniProt P37023)
[40] = target: STK17A (human) (UniProt Q9UEE5)

Chain of CDK13 (human) (Q14004 whole entry, looked up): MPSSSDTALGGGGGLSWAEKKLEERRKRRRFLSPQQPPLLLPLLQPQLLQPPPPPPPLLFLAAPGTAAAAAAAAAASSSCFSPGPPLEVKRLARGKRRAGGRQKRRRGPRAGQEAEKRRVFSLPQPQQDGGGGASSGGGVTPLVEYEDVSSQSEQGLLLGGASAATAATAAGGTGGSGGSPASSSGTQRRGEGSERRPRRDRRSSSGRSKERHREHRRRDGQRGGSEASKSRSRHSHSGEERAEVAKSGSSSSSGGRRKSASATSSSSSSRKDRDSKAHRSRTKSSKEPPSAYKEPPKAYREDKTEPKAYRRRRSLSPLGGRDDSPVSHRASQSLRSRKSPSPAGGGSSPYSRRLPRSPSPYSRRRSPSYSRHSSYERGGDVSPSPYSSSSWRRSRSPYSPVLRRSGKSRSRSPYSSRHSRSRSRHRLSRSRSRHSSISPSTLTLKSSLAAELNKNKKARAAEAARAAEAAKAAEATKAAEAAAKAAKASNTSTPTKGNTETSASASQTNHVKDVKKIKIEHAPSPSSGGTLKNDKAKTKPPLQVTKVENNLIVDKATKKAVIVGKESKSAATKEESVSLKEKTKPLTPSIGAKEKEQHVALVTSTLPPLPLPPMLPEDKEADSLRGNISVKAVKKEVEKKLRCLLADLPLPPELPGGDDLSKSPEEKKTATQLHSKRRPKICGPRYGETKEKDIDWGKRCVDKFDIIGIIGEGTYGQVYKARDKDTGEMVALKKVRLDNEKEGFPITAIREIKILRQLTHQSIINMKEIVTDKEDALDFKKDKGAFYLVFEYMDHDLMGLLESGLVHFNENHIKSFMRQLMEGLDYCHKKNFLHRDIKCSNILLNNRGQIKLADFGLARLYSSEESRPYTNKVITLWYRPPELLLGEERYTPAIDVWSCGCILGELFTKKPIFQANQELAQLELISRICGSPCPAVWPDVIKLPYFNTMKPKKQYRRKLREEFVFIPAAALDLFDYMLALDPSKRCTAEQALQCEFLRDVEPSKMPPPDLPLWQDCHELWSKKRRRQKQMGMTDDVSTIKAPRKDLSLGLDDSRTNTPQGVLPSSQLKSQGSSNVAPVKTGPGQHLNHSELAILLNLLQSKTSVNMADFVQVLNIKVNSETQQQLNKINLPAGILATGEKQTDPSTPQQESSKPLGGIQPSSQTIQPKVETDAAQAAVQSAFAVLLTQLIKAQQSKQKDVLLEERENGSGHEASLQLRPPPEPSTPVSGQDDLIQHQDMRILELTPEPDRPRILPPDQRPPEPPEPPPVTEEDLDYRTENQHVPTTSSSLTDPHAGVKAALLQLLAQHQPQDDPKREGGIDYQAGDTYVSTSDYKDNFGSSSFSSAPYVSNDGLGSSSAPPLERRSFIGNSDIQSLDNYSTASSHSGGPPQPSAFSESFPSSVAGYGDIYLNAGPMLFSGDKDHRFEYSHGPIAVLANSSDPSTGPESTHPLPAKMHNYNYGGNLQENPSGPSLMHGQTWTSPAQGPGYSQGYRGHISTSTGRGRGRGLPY
Chain of AKT1 (human) (P31749 whole entry, looked up): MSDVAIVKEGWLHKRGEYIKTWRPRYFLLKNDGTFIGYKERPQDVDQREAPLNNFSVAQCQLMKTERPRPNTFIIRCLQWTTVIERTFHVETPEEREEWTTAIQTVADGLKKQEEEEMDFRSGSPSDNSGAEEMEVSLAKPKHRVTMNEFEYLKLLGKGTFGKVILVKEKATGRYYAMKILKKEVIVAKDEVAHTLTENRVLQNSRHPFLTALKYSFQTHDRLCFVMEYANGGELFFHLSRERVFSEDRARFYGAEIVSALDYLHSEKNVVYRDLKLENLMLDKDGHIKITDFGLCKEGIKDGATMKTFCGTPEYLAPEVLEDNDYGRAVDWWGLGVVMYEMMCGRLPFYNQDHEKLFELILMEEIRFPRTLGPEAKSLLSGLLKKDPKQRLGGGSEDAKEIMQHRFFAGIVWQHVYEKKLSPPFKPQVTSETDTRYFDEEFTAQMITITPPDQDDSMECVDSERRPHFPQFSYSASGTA
Chain of MAP3K11 (human) (Q16584 whole entry, looked up): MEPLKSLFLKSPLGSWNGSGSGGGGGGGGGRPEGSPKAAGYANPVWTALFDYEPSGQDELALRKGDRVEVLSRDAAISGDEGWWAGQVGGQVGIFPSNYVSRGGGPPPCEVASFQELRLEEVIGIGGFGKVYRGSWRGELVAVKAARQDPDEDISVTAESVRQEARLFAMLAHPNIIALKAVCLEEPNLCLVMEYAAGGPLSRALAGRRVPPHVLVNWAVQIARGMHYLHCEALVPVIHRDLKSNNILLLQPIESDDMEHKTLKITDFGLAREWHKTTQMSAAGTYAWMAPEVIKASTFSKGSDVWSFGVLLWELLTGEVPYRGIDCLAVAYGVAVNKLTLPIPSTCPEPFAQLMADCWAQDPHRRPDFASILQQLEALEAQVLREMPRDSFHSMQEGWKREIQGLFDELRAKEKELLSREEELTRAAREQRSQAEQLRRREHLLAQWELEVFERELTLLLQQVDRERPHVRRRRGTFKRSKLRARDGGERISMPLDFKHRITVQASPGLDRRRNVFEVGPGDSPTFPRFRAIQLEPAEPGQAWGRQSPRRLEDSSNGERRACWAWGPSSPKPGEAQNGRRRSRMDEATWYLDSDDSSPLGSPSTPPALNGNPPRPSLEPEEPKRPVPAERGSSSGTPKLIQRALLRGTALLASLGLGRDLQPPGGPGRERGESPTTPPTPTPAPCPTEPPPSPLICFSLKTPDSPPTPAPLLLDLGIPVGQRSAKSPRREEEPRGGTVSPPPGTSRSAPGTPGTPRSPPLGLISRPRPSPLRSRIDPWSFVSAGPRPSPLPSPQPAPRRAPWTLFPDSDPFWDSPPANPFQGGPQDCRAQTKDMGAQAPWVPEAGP

## O=c1cc(N2CCOCC2)oc2c(-c3cccc4c3sc3ccccc34)cccc12
[1]
  kinase still bound, per cent of control: 93%
[2]
  kinase still bound, per cent of control: 89%
[3]
  kinase still bound, per cent of control: 97%
[4]
  kinase still bound, per cent of control: 100%
[5]
  kinase still bound, per cent of control: 94%
[6]
  kinase still bound, per cent of control: 61%
[7]
  kinase still bound, per cent of control: 90%
[8]
  kinase still bound, per cent of control: 91%
[9]
  kinase still bound, per cent of control: 92%
[10]
  kinase still bound, per cent of control: 65%
[11]
  kinase still bound, per cent of control: 85%
[12]
  kinase still bound, per cent of control: 100%
[13]
  kinase still bound, per cent of control: 100%
[14]
  kinase still bound, per cent of control: 100%
[15]
  kinase still bound, per cent of control: 20%
[16]
  kinase still bound, per cent of control: 90%
[17]
  kinase still bound, per cent of control: 100%
[18]
  kinase still bound, per cent of control: 0%
[19]
  kinase still bound, per cent of control: 100%
[20]
  kinase still bound, per cent of control: 76%
[21]
  kinase still bound, per cent of control: 89%
[22]
  kinase still bound, per cent of control: 100%
[23]
  kinase still bound, per cent of control: 100%
[24]
  kinase still bound, per cent of control: 100%
[25]
  kinase still bound, per cent of control: 73%
[26]
  kinase still bound, per cent of control: 100%
[27]
  kinase still bound, per cent of control: 100%
[28]
  kinase still bound, per cent of control: 100%
[29]
  kinase still bound, per cent of control: 76%
[30]
  kinase still bound, per cent of control: 100%
[31]
  kinase still bound, per cent of control: 100%
[32]
  kinase still bound, per cent of control: 86%
[33]
  kinase still bound, per cent of control: 18%
[34]
  kinase still bound, per cent of control: 93%
[35]
  kinase still bound, per cent of control: 78%
[36]
  kinase still bound, per cent of control: 90%
[37]
  kinase still bound, per cent of control: 59%
[38]
  kinase still bound, per cent of control: 89%
[39]
  kinase still bound, per cent of control: 94%
[40]
  kinase still bound, per cent of control: 95%

## CN(C)C/C=C/C(=O)Nc1ccc(C(=O)Nc2cccc(Nc3nccc(-c4cccnc4)n3)c2)cc1
[1]
  kinase still bound, per cent of control: 100%
[2]
  kinase still bound, per cent of control: 100%
[3]
  kinase still bound, per cent of control: 100%
[4]
  kinase still bound, per cent of control: 86%
[5]
  kinase still bound, per cent of control: 100%
[6]
  kinase still bound, per cent of control: 28%
[7]
  kinase still bound, per cent of control: 100%
[8]
  kinase still bound, per cent of control: 53%
[9]
  kinase still bound, per cent of control: 98%
[10]
  kinase still bound, per cent of control: 2.2%
[11]
  kinase still bound, per cent of control: 100%
[12]
  kinase still bound, per cent of control: 83%
[13]
  kinase still bound, per cent of control: 100%
[14]
  kinase still bound, per cent of control: 98%
[15]
  kinase still bound, per cent of control: 100%
[16]
  kinase still bound, per cent of control: 74%
[17]
  kinase still bound, per cent of control: 76%
[18]
  kinase still bound, per cent of control: 100%
[19]
  kinase still bound, per cent of control: 55%
[20]
  kinase still bound, per cent of control: 56%
[21]
  kinase still bound, per cent of control: 4.6%
[22]
  kinase still bound, per cent of control: 100%
[23]
  kinase still bound, per cent of control: 22%
[24]
  kinase still bound, per cent of control: 100%
[25]
  kinase still bound, per cent of control: 47%
[26]
  kinase still bound, per cent of control: 100%
[27]
  kinase still bound, per cent of control: 94%
[28]
  kinase still bound, per cent of control: 100%
[29]
  kinase still bound, per cent of control: 57%
[30]
  kinase still bound, per cent of control: 76%
[31]
  kinase still bound, per cent of control: 70%
[32]
  kinase still bound, per cent of control: 76%
[33]
  kinase still bound, per cent of control: 80%
[34]
  kinase still bound, per cent of control: 76%
[35]
  kinase still bound, per cent of control: 27%
[36]
  kinase still bound, per cent of control: 100%
[37]
  kinase still bound, per cent of control: 83%
[38]
  kinase still bound, per cent of control: 90%
[39]
  kinase still bound, per cent of control: 97%
[40]
  kinase still bound, per cent of control: 6.4%

## C=CC(=O)Nc1cc(-n2c(=O)ccc3cnc4ccc(-c5cn[nH]c5)cc4c32)ccc1C
[1]
  kinase still bound, per cent of control: 18%
[2]
  kinase still bound, per cent of control: 89%
[3]
  kinase still bound, per cent of control: 100%
[4]
  kinase still bound, per cent of control: 100%
[5]
  kinase still bound, per cent of control: 97%
[6]
  kinase still bound, per cent of control: 0.1%
[7]
  kinase still bound, per cent of control: 90%
[8]
  kinase still bound, per cent of control: 29%
[9]
  kinase still bound, per cent of control: 52%
[10]
  kinase still bound, per cent of control: 1.6%
[11]
  kinase still bound, per cent of control: 94%
[12]
  kinase still bound, per cent of control: 12%
[13]
  kinase still bound, per cent of control: 94%
[14]
  kinase still bound, per cent of control: 75%
[15]
  kinase still bound, per cent of control: 53%
[16]
  kinase still bound, per cent of control: 76%
[17]
  kinase still bound, per cent of control: 100%
[18]
  kinase still bound, per cent of control: 62%
[19]
  kinase still bound, per cent of control: 100%
[20]
  kinase still bound, per cent of control: 88%
[21]
  kinase still bound, per cent of control: 0.4%
[22]
  kinase still bound, per cent of control: 98%
[23]
  kinase still bound, per cent of control: 97%
[24]
  kinase still bound, per cent of control: 78%
[25]
  kinase still bound, per cent of control: 53%
[26]
  kinase still bound, per cent of control: 100%
[27]
  kinase still bound, per cent of control: 89%
[28]
  kinase still bound, per cent of control: 100%
[29]
  kinase still bound, per cent of control: 73%
[30]
  kinase still bound, per cent of control: 100%
[31]
  kinase still bound, per cent of control: 78%
[32]
  kinase still bound, per cent of control: 45%
[33]
  kinase still bound, per cent of control: 0%
[34]
  kinase still bound, per cent of control: 78%
[35]
  kinase still bound, per cent of control: 81%
[36]
  kinase still bound, per cent of control: 64%
[37]
  kinase still bound, per cent of control: 70%
[38]
  kinase still bound, per cent of control: 94%
[39]
  kinase still bound, per cent of control: 42%
[40]
  kinase still bound, per cent of control: 100%
